A word on the inhibition: it is the change of the read-out against control, counted positive when it falls.

Data set [1] deals with KBP (kinesin) movement along MTs in AHRTG cells. The experiment in a line: In cell motility assay with kinesin binding peptide probe (KBP). Format: cell-based, human. To be noted: for KBP mean displacement, decrease / KBP mean velocity, decrease / KBP mean movement / proportion of transported particles (TM/CM), reduction: AHRTG cells, NOC 2.5 µM, PTX 10 µM; for KBP mean displacement, decrease / KBP mean velocity, decrease: vs control; for KBP mean movement / proportion of transported particles (TM/CM), reduction: vs untreated.

Data set [2] relates to Vero cells. The experiment in a line: Cell viability, CellTiter 96 assay, Vero. Particulars: 24 h treatment.
Data set [3] deals with Vero E6 cells. The experiment in a line: Cell viability, CellTiter 96 assay, Vero E6. Particulars: Vero E6, 24 h treatment.
The subject of data set [4] is Huh-7 Lunet C3 cells. The experiment in a line: Cell viability, CellTiter 96 assay, Huh-7 Lunet C3. To be noted: Huh-7 Lunet C3, 24 h treatment, over 80% cell viability.
The subject of data set [5] is VACV vtag2GFP. The format is cell-based, vaccinia virus.
Data set [6] concerns ASFV BPP30GFP. The format is cell-based, African swine fever virus.
For data set [7], the system named is Huh-7 Lunet C3 cells. Particulars: human, 24 h.
Data set [8] deals with Vero E6 cells. Particulars: African green monkey, 24 h.
Data set [9] has as its system Vero cells. To be noted: African green monkey, 24 h.
The test system of data set [10] is VSV-G-luc (vesicular stomatitis virus). Format: cell-based.
Data set [11] has as its system DBP (dynein) movement along MTs in AHRTG cells. The experiment in a line: In cell motility assay with dynein binding peptide probe (DBP). Format: cell-based, human. To be noted: for DBP mean displacement, decrease / DBP mean velocity, decrease / DBP mean movement / proportion of transported particles (TM/CM), reduction: NOC 2.5 µM, PTX 10 µM; for DBP mean displacement, decrease / DBP mean velocity, decrease: vs control; for DBP mean movement / proportion of transported particles (TM/CM), reduction: vs untreated.

In data set [12] the test system is SARS-CoV-2 strain NL/2020. The experiment in a line: microbe, parasite or virus in culture. Format: cell-based. Particulars: Severe acute respiratory syndrome coronavirus 2; A549-ACE2 cells, 1 h pretreatment, 48 h, optimal dose (PPT 100 nM); read-out: inhibition of SARS-CoV-2 infection.

Read-outs that look alike come from different tables or passages of the source.

With `CCCSc1ccc2nc(NC(=O)OC)[nH]c2c1` [ABZ, albendazole], in [1], the “effect on KBP movement (TM/CM ratio)” value was “very low effect on motion”, the “effect on KBP particle displacement” value is given as “no significant modification” and the “effect on KBP particle velocity” value is listed as “no significant modification”. In [2], this compound had a highest non-toxic concentration of 25 nM. The highest non-toxic concentration in data set [3] came to 25 nM. Further, the highest non-toxic concentration in [4] worked out at 1 nM.

As for `CC(C)(C)c1[nH]cnc1/C=c1\[nH]c(=O)/c(=C/c2ccccc2)[nH]c1=O` [PLIN, plinabulin], the “reduction of VACV (vtag2GFP) viral infection” value in data set [5] was 50%. Also, in [6], the “inhibition of ASFV early infection (BPP30GFP)” value (shortened to “inhibition … (BPP30GFP)”) came to 30%. The highest non-toxic concentration in data set [2] was 25 nM; in [3] it was 25 nM; in data set [4] it was 0.5 nM.

With `COc1ccc2c(c1OC)C(=O)O[C@@H]2[C@H]1c2c(cc3c(c2OC)OCO3)CCN1C` [NOS, noscapine], the “effect on KBP movement (TM/CM ratio)” value in data set [1] was “no effect on KBP movement”. For the same compound, the highest non-toxic concentration in [7], in data set [8] and in data set [9] was 100 nM each time.

Regarding `CC[C@]1(O)C[C@H]2CN(CCc3c([nH]c4ccccc34)[C@@](C(=O)OC)(c3cc4c(cc3OC)N(C=O)[C@H]3[C@@](O)(C(=O)OC)[C@H](OC(C)=O)[C@]5(CC)C=CCN6CC[C@]43[C@@H]65)C2)C1` [VCR, vincristine], the highest non-toxic concentration in data set [7] came out at 5 nM; in data set [8], 1 nM; in data set [9] it was 1 nM.

In the case of `CC[C@]1(O)C[C@@H]2CN(CCc3c([nH]c4ccccc34)[C@@](C(=O)OC)(c3cc4c(cc3OC)N(C)[C@H]3[C@@](O)(C(N)=O)[C@H](O)[C@]5(CC)C=CCN6CC[C@]43[C@@H]65)C2)C1` [VDS, vindesine], the “decrease of VSV infection” value in data set [10] was 80%. Further, the “inhibition … (BPP30GFP)” value in [6] is given as “up to 50%”. Besides, the highest non-toxic concentration in [7] is listed as 0.02 nM; in [8], 100 nM; in data set [9], 100 nM.

For `COC(=O)Nc1nc2ccc(C(=O)c3ccccc3)cc2[nH]1` [MBZ, mebendazole], the “concentration at which the DBP TM/CM ratio was affected” value in data set [11] (dose-response 0.1-10 μM MBZ) was more than 2.5 µM. Moreover, the highest non-toxic concentration in data set [7] is listed as 5 nM; in data set [8] it was 10 nM; in data set [9] it was 10 nM.

Turning to `COC(=O)Nc1nc2ccc(Sc3ccccc3)cc2[nH]1` [FBZ, febendazole], the “reduction of VACV (vtag2GFP) viral infection” value in data set [5] amounted to 40%. Besides, the “inhibition … (BPP30GFP)” value in data set [6] worked out at 30%. For the same compound, the highest non-toxic concentration is 1 nM in data set [7], 50 nM in data set [8] and 75 nM in [9].

`COc1cc([C@@H]2c3cc4c(cc3[C@H](O)[C@H]3COC(=O)[C@H]23)OCO4)cc(OC)c1OC` [PPT, podophylotoxin]: in data set [12], the inhibition at 0.1 µM was 60%. For the same compound, the highest non-toxic concentration came out at 50 nM in data set [2], 50 nM in [3] and 0.2 nM in data set [4].

For `COc1cc2cc(c1Cl)N(C)C(=O)C[C@H](OC(=O)[C@H](C)N(C)C(C)=O)[C@]1(C)O[C@H]1[C@H](C)[C@@H]1C[C@@](O)(NC(=O)O1)[C@H](OC)/C=C/C=C(\C)C2` [MAYT, maytansine], the “decrease of VSV infection” value in data set [10] is 40%. The “effect on KBP movement (TM/CM ratio)” value in data set [1] was “significant reduction of the TM/CM ratio”. The highest non-toxic concentration in data set [2] is on record as 25 nM; in [3], 25 nM; in data set [4], 0.1 nM.

For `COc1cc2c(c(OC)c1OC)-c1ccc(OC)c(=O)cc1[C@@H](NC(C)=O)CC2` [COL, colchicine], the highest non-toxic concentration in [2] is reported as 75 nM; in data set [3] it was 25 nM; in data set [4] it was 0.2 nM.

In the case of `C=C1C[C@@H]2CC[C@@]34C[C@H]5O[C@H]6[C@@H](O3)[C@H]3O[C@H](CC[C@@H]3O[C@H]6[C@H]5O4)CC(=O)C[C@@H]3[C@@H](OC)[C@@H](C[C@H](O)CN)O[C@H]3C[C@H]3O[C@@H](CC[C@@H]1O2)C[C@@H](C)C3=C` [ERIB, eribulin], in data set [6], the “inhibition … (BPP30GFP)” value was “up to 50%”. In addition, the highest non-toxic concentration in [7] stood at 0.01 nM; in data set [8] it was 10 nM; in [9], 100 nM.

As for `CC[C@]1(O)C[C@@H]2CN(CCc3c([nH]c4ccccc34)[C@@](C(=O)OC)(c3cc4c(cc3OC)N(C)[C@H]3[C@@](O)(C(=O)OC)[C@H](OC(C)=O)[C@]5(CC)C=CCN6CC[C@]43[C@@H]65)C2)C1` [VBL, vinblastine], in data set [10], the “decrease of VSV infection” value is on record as 90%. Also, the “inhibition … (BPP30GFP)” value in data set [6] is listed as “up to 50%”. The highest non-toxic concentration in data set [7] amounted to 0.05 nM; in data set [8], 5 nM; in data set [9], 25 nM.

In the case of `CC(=O)O[C@@]12CO[C@@H]1C[C@H](O)[C@@]1(C)C(=O)[C@H](O)C3=C(C)[C@@H](OC(=O)[C@H](O)[C@@H](NC(=O)OC(C)(C)C)c4ccccc4)C[C@@](O)([C@@H](OC(=O)c4ccccc4)[C@H]21)C3(C)C` [DTX, docetaxel], the highest non-toxic concentration in data set [2] was found to be 10 nM; in [3], 10 nM; in [4] it was 0.03 nM.

As for `COC(=O)Nc1nc2ccc(C(=O)c3cccs3)cc2[nH]1` [NOC, nocodazole], in data set [1], the “KBP mean displacement, decrease” value is reported as 54%; the “KBP mean velocity, decrease” value is listed as 36%; the “KBP mean movement / proportion of transported particles (TM/CM), reduction” value was 68%. In data set [11], the “DBP mean displacement, decrease” value is recorded as 44%; the “DBP mean velocity, decrease” value amounted to 30%; the “DBP mean movement / proportion of transported particles (TM/CM), reduction” value is reported as 60%.

For `CO[C@H]1C(=O)[C@]2(C)[C@@H](OC)C[C@H]3OC[C@@]3(OC(C)=O)[C@H]2[C@H](OC(=O)c2ccccc2)[C@]2(O)C[C@H](OC(=O)[C@H](O)[C@@H](NC(=O)OC(C)(C)C)c3ccccc3)C(C)=C1C2(C)C` [CTX, cabazitaxel], the “effect on KBP movement (TM/CM ratio)” value in [1] was “affected particle motion”. Besides, the highest non-toxic concentration in [2] stood at 10 nM; in [3], 25 nM; in [4] it was 0.01 nM.

Take `CC(=O)O[C@H]1C(=O)[C@@]2(C)[C@H]([C@H](OC(=O)c3ccccc3)[C@]3(O)C[C@H](OC(=O)[C@H](O)[C@@H](NC(=O)c4ccccc4)c4ccccc4)C(C)=C1C3(C)C)[C@]1(OC(C)=O)CO[C@@H]1C[C@@H]2O` [PTX, paclitaxel]: in data set [1], the “effect on KBP particle displacement” value is reported as “significantly decreased the displacement of particles”; the “KBP mean displacement, decrease” value is on record as 16%; the “KBP mean velocity, decrease” value is “no meaningful changes”; the “KBP mean movement / proportion of transported particles (TM/CM), reduction” value stood at 17%. Also, in data set [11], the “DBP mean displacement, decrease” value is “no alterations”; the “DBP mean velocity, decrease” value is “no alterations”; the “DBP mean movement / proportion of transported particles (TM/CM), reduction” value worked out at 27%. The same compound yielded a highest non-toxic concentration in [7] of 5 nM. The compound also registered a highest non-toxic concentration in [8] of 25 nM. Also, in data set [9], the highest non-toxic concentration was 25 nM.

As for `C/C(=C\c1csc(C)n1)[C@@H]1C[C@@H]2O[C@]2(C)CCC[C@H](C)[C@H](O)[C@@H](C)C(=O)C(C)(C)[C@@H](O)CC(=O)N1` [EPO, ixabepilone], the highest non-toxic concentration in [7] is given as 0.05 nM; in data set [8] it was 25 nM; in data set [9], 25 nM.

The values are drawn from article PMC8998746, “Effect of Clinically Used Microtubule Targeting Drugs on Viral Infection and Transport Function” (International Journal of Molecular Sciences, 2022).
